Measurements: patent publication US4933359A, “4(5)-substituted imidazole derivatives as α2 -adrenergic receptor blockers” (Farmos-Yhtyma Oy, priority 1986, dated 1990)

Assays:
[1] = biological target: T1, α2-receptors (mouse vas deferens) (Mus musculus, UniProt Q01338); test: α2-antagonism in vitro, isolated electrically stimulated mouse vas deferens (pA2 vs detomidine); format: cell-based; details: antagonist given prior to agonist detomidine
T1 construct: isolated, electrically stimulated mouse vas deferens preparation; from tissue; host or cells: mouse vas deferens
T1 sequence (Q01338 1-465): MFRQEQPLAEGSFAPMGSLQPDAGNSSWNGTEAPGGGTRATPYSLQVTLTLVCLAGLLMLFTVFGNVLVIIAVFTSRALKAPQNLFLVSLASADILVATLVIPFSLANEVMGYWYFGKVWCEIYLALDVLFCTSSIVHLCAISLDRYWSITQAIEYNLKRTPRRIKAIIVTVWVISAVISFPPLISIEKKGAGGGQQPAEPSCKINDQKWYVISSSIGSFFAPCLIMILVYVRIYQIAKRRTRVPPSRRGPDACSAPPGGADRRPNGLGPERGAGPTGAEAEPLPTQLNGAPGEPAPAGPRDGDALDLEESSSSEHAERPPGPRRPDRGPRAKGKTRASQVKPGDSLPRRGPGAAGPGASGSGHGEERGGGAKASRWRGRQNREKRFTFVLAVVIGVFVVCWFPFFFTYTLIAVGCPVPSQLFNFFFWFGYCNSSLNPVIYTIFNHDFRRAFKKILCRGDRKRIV
Description: The α2 -antagonism of these compounds was determined in vitro using the isolated, electrically stimulated mouse vas deferens preparation (Marshall et al., Br. J. Pharmac. 62, 147, 151, 1978). In this model, an α2 -agonist (detomidine) blocks electrically stimulated muscular contractions and the effect of the α2 -antagonist is seen by administering it prior to the agonist and by determining its pA2 value.
Compound mouse vas deferens

[2] = biological target: T2, α2-receptors of the central nervous system (Rattus norvegicus, UniProt P22909); test: central α2-blocking effect in vivo: reversal of detomidine-induced mydriasis in anaesthetized rat; details: iv, standard dose of detomidine i.v., then increasing i.v. doses of antagonist, read-out: ED50, dose producing a 50 percent reversal of detomidine-induced mydriasis
T2 construct: from tissue; host or cells: living anaesthetized rat, central nervous system
T2 sequence (P22909 1-465): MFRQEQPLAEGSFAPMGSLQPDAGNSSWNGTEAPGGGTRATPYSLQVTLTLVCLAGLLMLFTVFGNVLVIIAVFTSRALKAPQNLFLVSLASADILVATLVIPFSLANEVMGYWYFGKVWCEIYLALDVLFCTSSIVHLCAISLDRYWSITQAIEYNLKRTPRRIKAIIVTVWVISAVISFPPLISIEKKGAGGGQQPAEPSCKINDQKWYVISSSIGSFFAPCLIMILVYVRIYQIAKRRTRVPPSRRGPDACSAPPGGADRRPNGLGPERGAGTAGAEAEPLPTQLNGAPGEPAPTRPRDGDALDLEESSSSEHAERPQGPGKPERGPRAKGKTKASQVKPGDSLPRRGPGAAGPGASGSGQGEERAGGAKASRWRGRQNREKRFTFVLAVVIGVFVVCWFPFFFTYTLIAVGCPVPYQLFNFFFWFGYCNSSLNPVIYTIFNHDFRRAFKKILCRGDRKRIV
Description: The central α2 -blocking effect of the compounds of the invention in vivo was studied. It is known that in the rat α2 -agonists induce dilation of the pupil (mydriasis) and that this effect is transmitted via α2 -receptors of the central nervous system. In an anaesthetized rat, a standard dose of detomidine was administered intravenously. Thereafter increasing doses of the antagonist under test were injected intravenously and the reversal of detomidine-induced mydriasis was observed. The ED50 value of the antagonist, i.e. the dose producing a 50 percent reversal, was determined.

α2-receptors = details: Virtanen et al., 1983; cited from earlier work

Kb [1] [nM] | SMILES | further results
3980 | CC(C)(O)C1(c2cnc[nH]2)Cc2ccccc2C1 [Compound I, 2-[2,3-dihydro-2-[imidazol-4(5)-yl]-1H-inden-2-yl]-2-propanol] | 
25.1 | C=CC1(c2cnc[nH]2)Cc2ccccc2C1 [Compound IV, 4(5)-(2,3-dihydro-2-vinyl-1H-inden-2-yl)imidazole] | 
 | CC=C1c2ccccc2CC1(C)c1cnc[nH]1 (stereo not shown) [Compound VI, 4(5)-(2,3-dihydro-1-ethylidene-2-methyl-1H-inden-2-yl)-imidazole] | ED50 [2]: 0.001 mg/kg
 | Cc1cccc(Cc2c[nH]cn2)c1C [detomidine] | α2-receptor stimulation responsible for primary pharmacodynamic effects, e.g. sedation (in words) (α2-receptors): ability to stimulate α2 -receptors
100 | C=C(C)C1(c2cnc[nH]2)Cc2ccccc2C1 [Compound II, 4(5)-(2,3-dihydro-2-isopropenyl-1H-inden-2-yl)imidazole] | 
 | C=C1c2ccccc2CC1(C)c1cnc[nH]1 (stereo not shown) [Compound V, 4(5)-(2,3-dihydro-2-methyl-1-methylene-1H-inden-2-yl)-imidazole] | ED50 [2]: 0.03 mg/kg
398 | CC(C)C1(c2cnc[nH]2)Cc2ccccc2C1 [Compound III, 4(5)-(2,3-dihydro-2-isopropyl-1H-inden-2-yl)imidazole] | 
